These results are taken from ChEMBL document CHEMBL4184161, “Novel all-hydrocarbon stapled p110α[E545K] peptides as blockers of the oncogenic p110α[E545K]-IRS1 interaction” (Bioorg Med Chem Lett, 2017).

Active and inactive are the calls of the source. The rule behind the calls is not given here. Numbered stars: 1 amine (or outer) side, 2 acyl side, 3 side chain; on linkers, the order of the positions; unused ones are H or OH. Bridge positions count the residues as written; N and C are the ends. Square brackets hold non-standard residues; d marks the D form. Peptide text beside a SMILES is read from it. X1 = C[C@](CCCCCC=[*:3])(N[*:1])C(=O)[*:2]; X2 = C[C@@](CCCCC=[*:3])(N[*:1])C(=O)[*:2]; R8 = C=CCCCCCC[C@@](C)(N)C(=O)O; S5 = C=CCCC[C@](C)(N)C(=O)O

RAC-alpha serine/threonine-protein kinase (Homo sapiens), sequence (P31749 whole entry): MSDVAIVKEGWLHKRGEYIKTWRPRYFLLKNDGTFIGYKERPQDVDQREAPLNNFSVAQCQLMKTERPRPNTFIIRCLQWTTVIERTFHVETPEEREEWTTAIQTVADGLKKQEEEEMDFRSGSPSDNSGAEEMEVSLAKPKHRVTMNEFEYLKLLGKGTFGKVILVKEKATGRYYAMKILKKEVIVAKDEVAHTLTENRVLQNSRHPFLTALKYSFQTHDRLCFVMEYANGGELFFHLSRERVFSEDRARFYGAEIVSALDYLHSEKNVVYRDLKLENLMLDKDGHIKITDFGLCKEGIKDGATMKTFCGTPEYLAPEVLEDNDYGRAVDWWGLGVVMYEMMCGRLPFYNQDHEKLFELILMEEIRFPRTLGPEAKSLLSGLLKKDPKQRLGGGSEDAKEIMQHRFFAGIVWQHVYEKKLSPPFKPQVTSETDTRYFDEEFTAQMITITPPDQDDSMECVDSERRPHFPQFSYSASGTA

Tested on in one data set: not listed separately
In words: Proteolytic stability of the compound assessed as Streptomyces griseus pronase-mediated compound hydrolysis by RP-HPLC method. It is filed as ADME.
Regarding `CC[C@H](C)[C@H](NC(=O)[C@H](CCC(=O)O)NC(=O)[C@H](CO)NC(C)=O)C(=O)N[C@H](C(=O)N[C@@H](CCCCN)C(=O)N[C@@H](CCC(N)=O)C(=O)N[C@@H](CCC(=O)O)C(=O)N[C@@H](CCCCN)C(=O)N[C@]1(C)CCCCCC=CCCCC[C@@](C)(C(=O)N[C@@H](Cc2ccc(O)cc2)C(=O)N[C@@H](CS)C(N)=O)NC(=O)[C@H](CCCNC(=N)N)NC(=O)[C@H](Cc2cnc[nH]2)NC(=O)[C@H](CO)NC(=O)[C@H](Cc2c[nH]c3ccccc23)NC(=O)[C@H](CC(C)C)NC(=O)[C@H](Cc2ccccc2)NC1=O)[C@@H](C)O` (Ac-SEITKQEK[X1]FLWSHR[X2]YC-NH2; staple 9-16), the Stability result was “Stable”.

Regarding `CC[C@H](C)[C@H](NC(=O)[C@H](CCC(=O)O)NC(C)=O)C(=O)N[C@H](C(=O)N[C@@H](CCCCN)C(=O)N[C@]1(C)CCCCCCC=CCCC[C@@](C)(C(=O)N[C@@H](Cc2cnc[nH]2)C(=O)N[C@@H](CCCNC(=N)N)C(N)=O)NC(=O)[C@H](Cc2c[nH]c3ccccc23)NC(=O)[C@H](CC(C)C)NC(=O)[C@H](Cc2ccccc2)NC(=O)[C@H](CC(=O)O)NC(=O)[C@H](CCCCN)NC(=O)[C@H](CCC(=O)O)NC1=O)[C@@H](C)O` (stereo in doubt; form 2) [listing 1 of 2 here], the Stability result is listed as “Stable”. Same read-out and setting: with `CC[C@H](C)[C@H](NC(=O)[C@H](CCC(=O)O)NC(=O)[C@H](CO)NC(C)=O)C(=O)N[C@H](C(=O)N[C@@H](CCCCN)C(=O)N[C@@H](CCC(N)=O)C(=O)N[C@@H](CCC(=O)O)C(=O)N[C@@H](CCCCN)C(=O)N[C@@]1(C)CCC/C=C/CCC[C@@](C)(C(=O)N[C@@H](Cc2cnc[nH]2)C(=O)N[C@@H](CCCNC(=N)N)C(=O)N[C@@H](Cc2cnc[nH]2)C(=O)N[C@@H](Cc2ccc(O)cc2)C(=O)N[C@@H](CS)C(N)=O)NC(=O)[C@H](Cc2c[nH]c3ccccc23)NC(=O)[C@H](CC(C)C)NC(=O)[C@H](Cc2ccccc2)NC1=O)[C@@H](C)O` (Ac-SEITKQEK[S5]FLW[S5]HRHYC-NH2; staple (E) 9-13) the entry was “Stable”. In the case of `CC[C@H](C)[C@H](NC(=O)[C@H](CCC(=O)O)NC(=O)[C@H](CO)NC(C)=O)C(=O)N[C@H](C(=O)N[C@@H](CCCCN)C(=O)N[C@]1(C)CCCCCCC=CCCC[C@@](C)(C(=O)N[C@@H](Cc2cnc[nH]2)C(=O)N[C@@H](CCCNC(=N)N)C(=O)N[C@@H](Cc2cnc[nH]2)C(=O)N[C@@H](Cc2ccc(O)cc2)C(=O)N[C@@H](CS)C(N)=O)NC(=O)[C@H](Cc2c[nH]c3ccccc23)NC(=O)[C@H](CC(C)C)NC(=O)[C@H](Cc2ccccc2)NC(=O)[C@H](CC(=O)O)NC(=O)[C@H](CCCCN)NC(=O)[C@H](CCC(=O)O)NC1=O)[C@@H](C)O` (Ac-SEITK[R8]EKDFLW[S5]HRHYC-NH2; staple 6-13), the Stability result was “Stable”.

A further data set concerns the target RAC-alpha serine/threonine-protein kinase (Homo sapiens) (UniProt P31749). In words: Inhibition of p110alpha[E545K]-IRS1 interaction-initiated Akt phosphorylation at Ser473 residue in DLD1 human colon cancer cells at 50 uM by Western blot analysis.
`CC[C@H](C)[C@H](NC(=O)[C@H](CCC(=O)O)NC(C)=O)C(=O)N[C@H](C(=O)N[C@@H](CCCCN)C(=O)N[C@]1(C)CCCCCCC=CCCC[C@@](C)(C(=O)N[C@@H](Cc2cnc[nH]2)C(=O)N[C@@H](CCCNC(=N)N)C(N)=O)NC(=O)[C@H](Cc2c[nH]c3ccccc23)NC(=O)[C@H](CC(C)C)NC(=O)[C@H](Cc2ccccc2)NC(=O)[C@H](CC(=O)O)NC(=O)[C@H](CCCCN)NC(=O)[C@H](CCC(=O)O)NC1=O)[C@@H](C)O` (stereo in doubt; form 2) [listing 2 of 2 here]: the inhibition result is “Active”. As to `CC[C@H](C)[C@H](NC(=O)[C@H](CCC(=O)O)NC(C)=O)C(=O)N[C@H](C(=O)N[C@@H](CCCCN)C(=O)N[C@]1(C)CCCCCCC=CCCC[C@@](C)(C(=O)N[C@@H](Cc2cnc[nH]2)C(=O)N[C@@H](CCCNC(=N)N)C(N)=O)NC(=O)[C@H](Cc2c[nH]c3ccccc23)NC(=O)[C@H](CC(C)C)NC(=O)[C@H](Cc2ccccc2)NC(=O)[C@H](CC(=O)O)NC(=O)[C@H](CCCCN)NC(=O)[C@H](CCC(=O)O)NC1=O)[C@@H](C)O` (stereo in doubt; form 1), the inhibition entry is “Active”. Still for that read-out and setting: with `CC[C@H](C)[C@H](NC(=O)[C@H](CCC(=O)O)NC(=O)[C@H](CO)NC(C)=O)C(=O)N[C@H](C(=O)N[C@@H](CCCCN)C(=O)N[C@@H](CCC(N)=O)C(=O)N[C@@H](CCC(=O)O)C(=O)N[C@@H](CCCCN)C(=O)N[C@@]1(C)CCC/C=C/CCC[C@@](C)(C(=O)N[C@@H](Cc2cnc[nH]2)C(=O)N[C@@H](CCCNC(=N)N)C(=O)N[C@@H](Cc2cnc[nH]2)C(=O)N[C@@H](Cc2ccc(O)cc2)C(=O)N[C@@H](CS)C(N)=O)NC(=O)[C@H](Cc2c[nH]c3ccccc23)NC(=O)[C@H](CC(C)C)NC(=O)[C@H](Cc2ccccc2)NC1=O)[C@@H](C)O` (Ac-SEITKQEK[S5]FLW[S5]HRHYC-NH2; staple (E) 9-13) the entry was “Active”.
